The supplement of paper PMC10307832

Compound: COc1cccc2cc(-c3nc([C@H]4CC[C@H](C(=O)O)CC4)n4ncnc(N)c34)[nH]c12 [OSI-027] + Cc1cc(Nc2cc(N3CCN(C)CC3)nc(Sc3ccc(NC(=O)C4CC4)cc3)n2)n[nH]1 [Tozasertib] (partner 0.1 µM)
Assay: relative viability (nuclei count vs DMSO), 5 days (fraction); higher = more cells survive
Details: first compound 0.03162 µM
Procedure, shortened: (§1)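 Relative viability was taken as the ratio of nuclei in treated wells to nuclei in vehicle wells. Lung cancer cell lines in 1536-well plates received compounds by pin tool one day after seeding, either one drug alone or a fixed anchor-drug dose plus five library-drug doses (not always all listed) in √10 steps. Nuclei were counted on 4× images after 5 days of treatment, and values are medians of duplicate plates.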

Going from NCI-H2126 to EPLC-272H, the relative viability falls from 0.848 to 0.277.

First: NCI-H1755
Second: NCI-H2023
The relative viability of the first is higher: 0.559 for the first, 0.319 for the second.

First: NCI-H1623
Second: NCI-H1650
The relative viability of the first is higher: 0.414 for the first, 0.347 for the second.

Going from NCI-H1793 to NCI-H2342, the relative viability rises from 0.313 to 0.509.

Going from H3255 to NCI-H1975, the relative viability rises from 0.62 to 0.778.

Going from PC-14 to NCI-H1437, the relative viability falls from 0.577 to 0.379.

First: HOP-62
Second: HCC-44
The relative viability of the first is lower: 0.39 for the first, 0.859 for the second.

Going from BEN to LOU-NH91, the relative viability falls from 0.625 to 0.617.

Compared with NCI-H661, NCI-H1651 is higher in relative viability: 0.374 for the first, 0.642 for the second.

First: PC-3 [JPC-3]
Second: SW 1573
The relative viability of the first is higher: 0.808 for the first, 0.197 for the second.

Going from LK-2 to NCI-H2405, the relative viability rises from 0.188 to 0.715.

First: NCI-H1993
Second: ChaGo-K-1
The relative viability of the first is higher: 0.56 for the first, 0.222 for the second.

First: NCI-H1355
Second: HCC-366
The relative viability of the first is higher: 0.492 for the first, 0.113 for the second.

First: NCI-H1915
Second: NCI-H838
The relative viability of the first is lower: 0.445 for the first, 0.482 for the second.

Going from A-427 to NCI-H2009, the relative viability rises from 0.201 to 0.621.

Compared with ABC-1, EKVX is higher in relative viability: 0.179 for the first, 0.358 for the second.

Work on NCI-H727 yielded a relative viability of 0.65.

Same assay, conditions: first compound 0.1 µM

First: NCI-H2126
Second: EPLC-272H
The relative viability of the first is lower: 0.725 for the first, 1.01 for the second.

Going from NCI-H1755 to NCI-H2023, the relative viability falls from 0.524 to 0.352.

Going from NCI-H1623 to NCI-H1650, the relative viability falls from 0.417 to 0.36.

First: NCI-H1793
Second: NCI-H2342
The relative viability of the first is lower: 0.28 for the first, 0.492 for the second.

First: H3255
Second: NCI-H1975
The relative viability of the first is lower: 0.604 for the first, 0.746 for the second.

First: PC-14
Second: NCI-H1437
The relative viability of the first is higher: 0.598 for the first, 0.456 for the second.

Going from HOP-62 to HCC-44, the relative viability rises from 0.369 to 1.05.

Compared with BEN, LOU-NH91 is higher in relative viability: 0.469 for the first, 0.571 for the second.

First: NCI-H661
Second: NCI-H1651
The relative viability of the first is lower: 0.362 for the first, 0.801 for the second.

Going from PC-3 [JPC-3] to SW 1573, the relative viability falls from 0.844 to 0.206.

Going from LK-2 to NCI-H2405, the relative viability rises from 0.144 to 0.76.

First: NCI-H1648
Second: NCI-H1993
The relative viability of the first is lower: 0.419 for the first, 0.546 for the second.

First: ChaGo-K-1
Second: NCI-H1355
The relative viability of the first is lower: 0.203 for the first, 0.541 for the second.

Compared with HCC-366, NCI-H1915 is higher in relative viability: 0.0867 for the first, 0.525 for the second.

First: NCI-H838
Second: A-427
The relative viability of the first is higher: 0.264 for the first, 0.159 for the second.

Compared with NCI-H2009, ABC-1 is lower in relative viability: 0.717 for the first, 0.203 for the second.

Compared with EKVX, NCI-H727 is higher in relative viability: 0.406 for the first, 0.716 for the second.

Same assay, conditions: first compound 0.3162 µM

Compared with NCI-H2126, EPLC-272H is lower in relative viability: 0.745 for the first, 0.162 for the second.

Compared with NCI-H1755, NCI-H2023 is lower in relative viability: 0.484 for the first, 0.348 for the second.

First: NCI-H1623
Second: NCI-H1650
The relative viability of the first is lower: 0.414 for the first, 0.424 for the second.

First: NCI-H1793
Second: NCI-H2342
The relative viability of the first is lower: 0.239 for the first, 0.449 for the second.

First: H3255
Second: NCI-H1975
The relative viability of the first is lower: 0.555 for the first, 0.66 for the second.

Going from PC-14 to NCI-H1437, the relative viability falls from 0.636 to 0.413.

Going from HOP-62 to HCC-44, the relative viability rises from 0.442 to 0.84.

Going from BEN to LOU-NH91, the relative viability rises from 0.529 to 0.658.

First: NCI-H661
Second: NCI-H1651
The relative viability of the first is lower: 0.344 for the first, 0.692 for the second.

First: PC-3 [JPC-3]
Second: SW 1573
The relative viability of the first is higher: 0.841 for the first, 0.142 for the second.

First: LK-2
Second: NCI-H2405
The relative viability of the first is lower: 0.162 for the first, 0.79 for the second.

First: NCI-H1648
Second: NCI-H1993
The relative viability of the first is lower: 0.366 for the first, 0.49 for the second.

Compared with ChaGo-K-1, NCI-H1355 is higher in relative viability: 0.382 for the first, 0.461 for the second.

Compared with HCC-366, NCI-H1915 is higher in relative viability: 0.128 for the first, 0.475 for the second.

Compared with NCI-H838, A-427 is lower in relative viability: 0.26 for the first, 0.219 for the second.

Going from NCI-H2009 to ABC-1, the relative viability falls from 0.755 to 0.167.

Compared with EKVX, NCI-H727 is higher in relative viability: 0.349 for the first, 0.725 for the second.

Same assay, conditions: first compound 1 µM

Compared with NCI-H2126, EPLC-272H is lower in relative viability: 0.538 for the first, 0.143 for the second.

Going from NCI-H1755 to NCI-H2023, the relative viability falls from 0.409 to 0.244.

Going from NCI-H1623 to NCI-H1650, the relative viability rises from 0.233 to 0.355.

Compared with NCI-H1793, NCI-H2342 is higher in relative viability: 0.209 for the first, 0.421 for the second.

Compared with H3255, NCI-H1975 is higher in relative viability: 0.436 for the first, 0.478 for the second.

Compared with PC-14, NCI-H1437 is lower in relative viability: 0.505 for the first, 0.318 for the second.

First: HOP-62
Second: HCC-44
The relative viability of the first is lower: 0.277 for the first, 0.685 for the second.

Going from BEN to LOU-NH91, the relative viability rises from 0.383 to 0.484.

First: NCI-H661
Second: NCI-H1651
The relative viability of the first is lower: 0.351 for the first, 0.591 for the second.

Going from PC-3 [JPC-3] to SW 1573, the relative viability falls from 0.351 to 0.178.

Compared with LK-2, NCI-H2405 is higher in relative viability: 0.145 for the first, 0.467 for the second.

Compared with NCI-H1648, NCI-H1993 is higher in relative viability: 0.305 for the first, 0.456 for the second.

Going from ChaGo-K-1 to NCI-H1355, the relative viability rises from 0.172 to 0.361.

First: HCC-366
Second: NCI-H1915
The relative viability of the first is lower: 0.0744 for the first, 0.404 for the second.

Going from NCI-H838 to A-427, the relative viability falls from 0.214 to 0.192.

First: NCI-H2009
Second: ABC-1
The relative viability of the first is higher: 0.444 for the first, 0.206 for the second.

Compared with EKVX, NCI-H727 is higher in relative viability: 0.269 for the first, 0.456 for the second.

Compound: COc1cccc2cc(-c3nc([C@H]4CC[C@H](C(=O)O)CC4)n4ncnc(N)c34)[nH]c12 [OSI-027] + Nc1nc2[nH]cc(CCc3ccc(C(=O)N[C@@H](CCC(=O)O)C(=O)O)cc3)c2c(=O)[nH]1 [Pemetrexed] (partner 0.2 µM)
Assay: as above
Details: first compound 0.01 µM
Procedure, shortened: as §1

Going from NCI-H2126 to EPLC-272H, the relative viability falls from 0.677 to 0.357.

Compared with NCI-H1755, NCI-H2023 is lower in relative viability: 0.5 for the first, 0.254 for the second.

Going from NCI-H1650 to NCI-H1793, the relative viability rises from 0.404 to 0.795.

Compared with NCI-H2342, H3255 is lower in relative viability: 0.755 for the first, 0.517 for the second.

First: NCI-H1975
Second: PC-14
The relative viability of the first is higher: 0.336 for the first, 0.136 for the second.

Going from NCI-H1437 to HOP-62, the relative viability rises from 0.357 to 0.371.

Going from HCC-44 to BEN, the relative viability rises from 0.668 to 0.78.

Compared with LOU-NH91, NCI-H661 is higher in relative viability: 0.387 for the first, 0.886 for the second.

Compared with NCI-H1651, PC-3 [JPC-3] is lower in relative viability: 0.54 for the first, 0.464 for the second.

First: SW 1573
Second: LK-2
The relative viability of the first is higher: 0.817 for the first, 0.238 for the second.

Cell Line NCI-H2405 has a relative viability of 0.854.
